Test results: ChEMBL document CHEMBL1221184, “Identifying off-target effects and hidden phenotypes of drugs in human cells” (Nat Chem Biol, 2006)
Activity calls are given as the source filed them. The calls are words filed in the database; no cut-off is given here.

system: PC-3; test: Antiproliferative activity against human PC3 cells at 500 nM after 120 hrs by MTT assay relative to DMSO; type: functional

Structure (SMILES)	fold change (FC)
NS(=O)(=O)c1ccc(-n2nc(C(F)(F)F)cc2-c2ccccc2)cc1	1.023
CC(O)(CS(=O)(=O)c1ccc(F)cc1)C(=O)Nc1ccc(C#N)c(C(F)(F)F)c1 (centres undefined) [BICALUTAMIDE]	1.005
CC[C@@]1(O)C(=O)OCc2c1cc1n(c2=O)Cc2cc3ccccc3nc2-1 [CAMPTOTHECIN]	0.258
C[C@@H]1C[C@H]2[C@@H]3CCC4=CC(=O)C=C[C@]4(C)[C@@]3(F)[C@@H](O)C[C@]2(C)[C@@]1(O)C(=O)CO [DEXAMETHASONE]	1.127
C[C@]12CC[C@@H]3c4ccc(O)cc4CC[C@H]3[C@@H]1CC[C@@H]2O [ESTRADIOL]	0.997
C[C@]12CC[C@@H]3c4ccc(O)cc4C[C@@H](CCCCCCCCC[S+]([O-])CCCC(F)(F)C(F)(F)F)[C@H]3[C@@H]1CC[C@@H]2O (some centres undefined) [FULVESTRANT]	1.068
O=C(c1ccc(OCCN2CCCCC2)cc1)c1c(-c2ccc(O)cc2)sc2cc(O)ccc12 [RALOXIFENE]	1.06
CC/C(=C(\c1ccccc1)c1ccc(OCCN(C)C)cc1)c1ccccc1 [TAMOXIFEN]	1.041
CN(C)CCOc1ccc(/C(=C(/CCCl)c2ccccc2)c2ccccc2)cc1 [TOREMIFENE]	1.001
COC[C@H]1OC(=O)c2coc3c2[C@@]1(C)C1=C(C3=O)[C@@H]2CCC(=O)[C@@]2(C)C[C@H]1OC(C)=O [WORTMANNIN]	0.856

target: Cofilin-1 (Homo sapiens) (UniProt P23528); test: Effect on cofilin1 expressed in HEK293 cells assessed as effect on cofilin1; Limk2 interaction complexes in presence of camptothecin by EYFP and/or YFP Venus fragment based reporter gene assay; type: cell-based
Sequence (P23528 whole entry, the tested form may be a part): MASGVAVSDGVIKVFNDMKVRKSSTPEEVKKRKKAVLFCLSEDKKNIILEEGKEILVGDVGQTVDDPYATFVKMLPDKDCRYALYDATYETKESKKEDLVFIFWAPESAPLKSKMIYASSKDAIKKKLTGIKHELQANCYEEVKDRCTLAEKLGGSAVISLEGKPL

Structure (SMILES)	Activity
C(=C\c1ccccc1)/CN1CCN(C(c2ccccc2)c2ccccc2)CC1	Active
Clc1ccccc1C(c1ccccc1)(c1ccccc1)n1ccnc1 [CLOTRIMAZOLE]	Active
O=C1C=C2C(=CCOC2O)O1 (centres undefined) [PATULIN]	Active

target: Transcription factor Jun (Homo sapiens) (UniProt P05412); test: Inhibition of c-Jun expressed in HEK293 cells assessed as induction of protein interaction in presence of camptothecin with Pin1 by EYFP based reporter gene assay; type: cell-based
Sequence (P05412 whole entry): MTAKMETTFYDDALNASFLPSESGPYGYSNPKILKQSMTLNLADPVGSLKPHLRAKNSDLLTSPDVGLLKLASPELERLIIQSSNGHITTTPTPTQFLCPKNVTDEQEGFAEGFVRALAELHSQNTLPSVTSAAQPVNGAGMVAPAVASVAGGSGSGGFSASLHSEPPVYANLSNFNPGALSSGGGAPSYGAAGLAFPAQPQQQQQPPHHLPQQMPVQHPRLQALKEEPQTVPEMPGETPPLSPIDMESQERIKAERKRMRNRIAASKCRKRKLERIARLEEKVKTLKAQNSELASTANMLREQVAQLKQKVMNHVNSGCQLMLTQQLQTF

Structure (SMILES)	Activity
C(=C\c1ccccc1)/CN1CCN(C(c2ccccc2)c2ccccc2)CC1	Active
Clc1ccccc1C(c1ccccc1)(c1ccccc1)n1ccnc1 [CLOTRIMAZOLE]	Active
O=C1C=C2C(=CCOC2O)O1 (centres undefined) [PATULIN]	Active

target: Cyclin-dependent kinase 1 (Homo sapiens) (UniProt P06493); test: Effect on Cdc2 expressed in HEK293 cells assessed as effect on Cdc2:Cdc25A interaction complexes in presence of camptothecin by EYFP and/or YFP Venus fragment based reporter gene assay; type: cell-based
Sequence (P06493 whole entry, looked up, the tested form may be a part): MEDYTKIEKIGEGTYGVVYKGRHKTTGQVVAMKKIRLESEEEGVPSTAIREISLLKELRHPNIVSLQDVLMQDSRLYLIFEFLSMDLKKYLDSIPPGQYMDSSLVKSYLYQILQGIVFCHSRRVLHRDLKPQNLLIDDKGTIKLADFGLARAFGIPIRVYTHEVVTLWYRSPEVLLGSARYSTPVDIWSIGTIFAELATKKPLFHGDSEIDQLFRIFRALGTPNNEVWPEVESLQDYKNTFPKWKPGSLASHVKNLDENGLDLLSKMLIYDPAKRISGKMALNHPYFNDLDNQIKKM

Structure (SMILES)	Activity
C(=C\c1ccccc1)/CN1CCN(C(c2ccccc2)c2ccccc2)CC1	Active
Clc1ccccc1C(c1ccccc1)(c1ccccc1)n1ccnc1 [CLOTRIMAZOLE]	Active
O=C1C=C2C(=CCOC2O)O1 (centres undefined) [PATULIN]	Active

system: PC-3; test: Antiproliferative activity against human PC3 cells at 30 uM after 120 hrs by MTT assay relative to DMSO; type: functional

Structure (SMILES)	fold change (FC)
CCC1(c2ccc(N)cc2)CCC(=O)NC1=O (centres undefined) [AMINOGLUTETHIMIDE]	0.979
CC(C)c1c(C(=O)Nc2ccccc2)c(-c2ccccc2)c(-c2ccc(F)cc2)n1CC[C@@H](O)C[C@@H](O)CC(=O)O [ATORVASTATIN]	0.264
COCc1c(C(C)C)nc(C(C)C)c(/C=C/[C@@H](O)C[C@@H](O)CC(=O)O)c1-c1ccc(F)cc1 [CERIVASTATIN]	0.254
CC(C)n1c(/C=C/C(O)CC(O)CC(=O)O)c(-c2ccc(F)cc2)c2ccccc21 (centres undefined) [FLUVASTATIN]	0.255
CC(=O)N1CCN(c2ccc(OCC3COC(Cn4ccnc4)(c4ccc(Cl)cc4Cl)O3)cc2)CC1 (centres undefined) [KETOCONAZOLE]	1.066
CC[C@H](C)C(=O)O[C@H]1C[C@@H](C)C=C2C=C[C@H](C)[C@H](CC[C@@H]3C[C@@H](O)CC(=O)O3)[C@H]21 [LOVASTATIN]	0.25
CC[C@H](C)C(=O)O[C@H]1CCC=C2C=C[C@H](C)[C@H](CC[C@@H]3C[C@@H](O)CC(=O)O3)[C@H]21 [MEVASTATIN]	0.243
CC[C@H](C)C(=O)O[C@H]1C[C@H](O)C=C2C=C[C@H](C)[C@H](CC[C@@H](O)C[C@@H](O)CC(=O)O)[C@H]21 [PRAVASTATIN]	1.098
CC(C)c1nc(N(C)S(C)(=O)=O)nc(-c2ccc(F)cc2)c1/C=C/[C@@H](O)C[C@@H](O)CC(=O)O [ROSUVASTATIN]	0.491
CCC(C)(C)C(=O)O[C@H]1C[C@@H](C)C=C2C=C[C@H](C)[C@H](CC[C@@H]3C[C@@H](O)CC(=O)O3)[C@H]21 [SIMVASTATIN]	0.239

system: PC-3; test: Antiproliferative activity against human PC3 cells at 1 uM after 120 hrs by MTT assay relative to DMSO; type: functional

Structure (SMILES)	fold change (FC)
CCCc1nc(C)c2c(=O)nc(-c3cc(S(=O)(=O)N4CCN(CC)CC4)ccc3OCC)[nH]n12	1.058
CCCc1nn(C)c2c(=O)[nH]c(-c3cc(S(=O)(=O)N4CCN(C)CC4)ccc3OCC)nc12	1.037
Ic1cccc(CSc2nnc(-c3ccncc3)o2)c1	1.095
CNc1cc2c(Nc3cccc(Br)c3)ncnc2cn1	1.022
CN1CC(=O)N2[C@H](c3ccc4c(c3)OCO4)c3[nH]c4ccccc4c3C[C@@H]2C1=O	1.052

system: PC-3; test: Antiproliferative activity against human PC3 cells at 5 uM after 120 hrs by MTT assay relative to DMSO; type: functional

Structure (SMILES)	fold change (FC)
NC1=NC(=O)/C(=C2/CCNC(=O)c3[nH]ccc32)N1	1.007
Cc1ccc(NC(=O)c2cccc(N(C)C)c2)cc1NC(=O)c1ccc(O)cc1	0.97
CC(C)C[C@H](NC(=O)c1ccc(NCc2c[nH]cn2)cc1-c1cccc2ccccc12)C(=O)O	0.966
COc1cc2ncc(-c3ccccc3)nc2cc1OC	0.94
CCCCCCCC/C=C\CCCCCCCC(=O)OC[C@@H](O)COP(=O)(O)O [LYSOPHOSPHATIDIC ACID]	1.018
CC[C@H](CO)Nc1nc(NCc2ccccc2)c2ncn(C(C)C)c2n1 [SELICICLIB]	0.797
CC1=C(/C=C/C(C)=C/C=C/C(C)=C/C(=O)O)C(C)(C)CCC1 [TRETINOIN]	0.969
CC(/C=C/C(=O)NO)=C\[C@@H](C)C(=O)c1ccc(N(C)C)cc1 [TRICHOSTATIN]	0.268
NS(=O)(=O)Cc1noc2ccccc12 [ZONISAMIDE]	1.035

system: PC-3; test: Antiproliferative activity against human PC3 cells at 25 uM after 120 hrs by MTT assay relative to DMSO; type: functional

Structure (SMILES)	fold change (FC)
O=c1cc(N2CCOCC2)oc2c(-c3ccccc3)cccc12 [LY-294002]	0.33
COc1ccc(C2CNC(=O)C2)cc1OC1CCCC1 (centres undefined) [ROLIPRAM]	1.065
C[S+]([O-])c1ccc(-c2nc(-c3ccc(F)cc3)c(-c3ccncc3)[nH]2)cc1 (centres undefined) [SB-203580]	0.721
C[C@@H](N)[C@H]1CC[C@H](C(=O)Nc2ccncc2)CC1 [Y-27632]	0.958

target: Cyclin-dependent kinase 1 (Homo sapiens) (UniProt P06493); test: Effect on Cdc2 expressed in HEK293 cells assessed as effect on Cdc2:Cdc25C interaction complexes in presence of camptothecin by EYFP and/or YFP Venus fragment based reporter gene assay; type: cell-based

Structure (SMILES)	Activity
Cc1ccc(S(=O)(=O)/C=C/C#N)cc1	Active
C(=C\c1ccccc1)/CN1CCN(C(c2ccccc2)c2ccccc2)CC1	Active
Clc1ccccc1C(c1ccccc1)(c1ccccc1)n1ccnc1 [CLOTRIMAZOLE]	Active
O=C1C=C2C(=CCOC2O)O1 (centres undefined) [PATULIN]	Active

system: PC-3; test: Antiproliferative activity against human PC3 cells at 2 uM after 120 hrs by MTT assay relative to DMSO; type: functional

Structure (SMILES)	fold change (FC)
O=S(=O)(NCCNC/C=C/c1ccc(Br)cc1)c1cccc2cnccc12	1.028
CC(C)(C)NCC(O)c1ccc(O)c(CO)c1 (centres undefined) [ALBUTEROL]	0.926
CC(C)(C)NCC(O)c1cc(Cl)c(N)c(Cl)c1 (centres undefined) [CLENBUTEROL]	0.963
CN1CCN(C2=Nc3cc(Cl)ccc3Nc3ccccc32)CC1 [CLOZAPINE]	0.977
CC(C)NCC(O)c1ccc(O)c(O)c1 (centres undefined) [ISOPROTERENOL]	0.955
CC1(C)CCC2=C(O1)c1ccccc1C(=O)C2=O [LAPACHONE]	0.243
Cc1cc2c(s1)Nc1ccccc1N=C2N1CCN(C)CC1 [OLANZAPINE]	1.059
CC(C)NCC(O)COc1cccc2ccccc12 (centres undefined) [PROPRANOLOL]	0.986
OCCOCCN1CCN(C2=Nc3ccccc3Sc3ccccc32)CC1 [QUETIAPINE]	1.013
Cc1nc2n(c(=O)c1CCN1CCC(c3noc4cc(F)ccc34)CC1)CCCC2 [RISPERIDONE]	1.071
O=C1Cc2cc(CCN3CCN(c4nsc5ccccc45)CC3)c(Cl)cc2N1 [ZIPRASIDONE]	1.017

system: PC-3; test: Antiproliferative activity against human PC3 cells at 10 uM after 120 hrs by MTT assay relative to DMSO; type: functional

Structure (SMILES)	fold change (FC)
CC[C@H](C)[C@@H](CO[C@@H](Cc1ccccc1)C(=O)N[C@@H](CCS(C)(=O)=O)C(=O)OC(C)C)NC[C@@H](N)CS	0.719
Cc1ccc(S(=O)(=O)/C=C/C#N)cc1	0.231
CCCCCCCCCCCCC/C=C/[C@H](O)[C@@H](CO)NC(C)=O [ACETYL CERAMIDE]	0.787
Cc1ccc(-c2cc(C(F)(F)F)nn2-c2ccc(S(N)(=O)=O)cc2)cc1 [CELECOXIB]	0.902
Clc1ccccc1C(c1ccccc1)(c1ccccc1)n1ccnc1 [CLOTRIMAZOLE]	0.708
Cc1ccc(NC(=O)c2ccc(CN3CCN(C)CC3)cc2)cc1Nc1nccc(-c2cccnc2)n1 [IMATINIB]	0.5
c1ccc([C@H]2CN3CCSC3=N2)cc1 [LEVAMISOLE]	1.028
Fc1ccc([C@@H]2CCNC[C@H]2COc2ccc3c(c2)OCO3)cc1 [PAROXETINE]	0.328
O=C1C=C2C(=CCOC2O)O1 (centres undefined) [PATULIN]	0.23
CS(=O)(=O)c1ccc(C2=C(c3ccccc3)C(=O)OC2)cc1 [ROFECOXIB]	1.08
CC(C)(C)c1ccc(C(O)CCCN2CCC(C(O)(c3ccccc3)c3ccccc3)CC2)cc1 (centres undefined) [TERFENADINE]	0.212
Cc1onc(-c2ccccc2)c1-c1ccc(S(N)(=O)=O)cc1 [VALDECOXIB]	1.048
